Reference: patent US20090176804A1, “2-PHENYL-INDOLES AS PROSTAGLANDIN D2 RECEPTOR ANTAGONISTS” (priority 2006, published 2009)

Molecular target: T1, DP receptor (Homo sapiens, UniProt Q13258)
T1 construct: the human cell line LS174T, which expresses the endogenous DP receptor; endogenous in cells; host or cells: LS174T (human cell line)
T1 sequence (Q13258 1-359): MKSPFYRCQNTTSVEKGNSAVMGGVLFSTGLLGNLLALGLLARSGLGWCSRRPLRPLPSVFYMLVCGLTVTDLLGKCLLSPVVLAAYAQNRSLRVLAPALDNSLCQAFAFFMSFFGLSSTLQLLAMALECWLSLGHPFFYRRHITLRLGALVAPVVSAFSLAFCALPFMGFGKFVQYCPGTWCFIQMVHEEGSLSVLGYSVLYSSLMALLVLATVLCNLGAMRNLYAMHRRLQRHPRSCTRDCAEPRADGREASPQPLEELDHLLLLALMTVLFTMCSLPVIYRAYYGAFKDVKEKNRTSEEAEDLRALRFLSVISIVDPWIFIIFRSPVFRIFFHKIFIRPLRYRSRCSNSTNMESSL
Assay: SPA cAMP assay in human LS174 T cells (human DP functional assay)
Format: cell-based
Conditions: concentration of the compound producing 50% inhibition in the SPA cAMP assay in human LS174 T cells; PGD2 15 nM final
Description: As used in the examples and preparations that follow, as well as the rest of the application, the terms used therein shall have the meanings indicated: “kg” refers to kilograms, “g” refers to grams, “mg” refers to milligrams, “μg” refers to micrograms, “mol” refers to moles, “mmol” refers to millimoles, “M” refers to molar, “mM” refers to millimolar, “μM” refers to micromolar, “nM” refers to nanomolar, “L” refers to liters, “mL” or “ml” refers to milliliters, “μL” refers to microliters, “° C.” refers to degrees Celsius, “mp” or “m.p.” refers to melting point, “bp” or “b.p.” refers to boiling point, “mm of Hg” refers to pressure in millimeters of mercury, “cm” refers to centimeters, “nm” refers to nanometers, “abs.” refers to absolute, “conc.” refers to concentrated, “c” refers to concentration in g/mL, “rt” refers to room temperature, “TLC” refers to thin layer chromatography, “HPLC” refers to high performance liquid chromatography, “i.p.” refers to intraperitoneally, “i.v.” refers to intravenously, “s”=singlet, “d”=doublet; “t”=triplet; “q”=quartet; “m”=multiplet, “dd”=doublet of doublets; “br”=broad, “LC”=liquid chromatograph, “MS”=mass spectrograph, “ESI/MS”=electrospray ionization/mass spectrograph, “RT”=retention time, “M”=molecular ion, “PSI”=pounds per square inch, “DMSO”=dimethyl sulfoxide, “DMF”=N,N-dimethylformamide, “CDI”=1,1′-carbonyldiimidazole, “DCM” or “CH2Cl2”=dichloromethane, “HCl”=hydrochloric acid, “SPA”=Scintillation Proximity Assay, “ATTC”=American Type Culture Collection, “FBS”=Foetal Bovine Serum, “MEM”=Minimal Essential Medium, “CPM”=Counts Per Minute, “EtOAc”=ethyl acetate, “PBS”=Phosphate Buffered Saline, “TMD”=transmembrane domain, “IBMX”=3-isobutyl-1-methylxanthine, “cAMP”=cyclic adenosine monophosphate, “IUPAC”=International Union of Pure and Applied Chemistry, “MHz”=megahertz, “PEG”=polyethylene glycol, “MeOH”=methanol, “N”=normality, “THF”=tetrahydrofuran, “h”=hours, “min”=minute(s), “MeNH2”=methyl amine, “N2”=nitrogen gas, “iPrOH”=isopropyl alcohol, “O.D.”=outer diameter, “MeCN” or “CH3CN”=acetonitrile, “Et2O”=ethyl ether, “TFA”=TFA, “Prep LC”=preparatory “flash” liquid chromatography, “SPE”=solid phase extraction, “LAH”=lithium aluminum hydride, “pmol”=picomolar, “heptane”=n-heptane, “HMBA-AM” resin=4-hydroxymethylbenzoic acid amino methyl resin, “PdCl2(dppf)2”=1,1′-bis(diphenylphosphino)ferrocene-palladium (II) dichloride DCM complex, “HBTU”=2-(1H-benzotriazol-1yl)-1,1,3,3-tetramethyluronium hexafluorophosphate, “DIEA”=diisopropylethylamine, “CsF”=cesium fluoride, “LiOH”=lithium hydroxide, “˜”=approximately, “IC50”=the concentration of the compound producing 50% inhibition in the SPA cAMP assay in human LS174 T cells.
The inhibitory effects of the compounds according to the invention are assessed in a human DP functional assay. A cAMP assay is employed using the human cell line LS174T, which expresses the endogenous DP receptor. The protocol is similar to that described previously (Wright D H, Ford-Hutchinson A W, Chadee K, Metters K M, The human prostanoid DP receptor stimulates mucin secretion in LS174T cells, Br J Pharmacol. 131(8):1537-45 (2000)).
Protocol for SPA cAMP Assay in Human LS174 T Cells
• PGD2 (Cayman Chemical Cat#12010) • IBMX (Sigma Cat# 5879) • cAMP SPA direct screening assay system (Amersham code RPA 559) • 96-well cell plates (Wallac Cat#1450-516) • Wallac 1450 Microplate Trilux scintillation counter (PerkinElmer) • Plate sealers • Eppendorf tubes • Dulbecco's Phosphate-Buffered Saline (PBS) (Invitrogen Cat#14040-133) • Distilled water • Vortex • Magnetic stirrer and stirrer bars
Add 50 μL of […] IBMX into 100 mL PBS to make a final concentration of 100 μM and sonicate at 30° C. for 20 minutes.
Dissolve 1 mg PGD2 (FW, 352.5) in 284 μL DMSO to make 10 mM stock solution and store at […]. Before each assay, it is freshly prepared. Add 3 μL of 10 mM stock solution to […], mix it thoroughly, and transfer 10 mL to 40 mL PBS. […]

IC50 | Compound
12 nM | O=C(O)Cc1c(-c2ccc(Cl)c(S(=O)(=O)NCc3cc(Cl)cc(Cl)c3)c2)[nH]c2ccccc12 [Example 1(c), {2-[4-Chloro-3-(3,5-dichloro-benzylsulfamoyl)-phenyl]-1H-indol-3-yl}-acetic Acid]
3.3 nM | COc1cccc(CCNS(=O)(=O)c2cc(-c3[nH]c4ccccc4c3CC(=O)O)ccc2Cl)c1 [Example 2(b), (2-{4-Chloro-3-[2-(3-methoxy-phenyl)-ethylsulfamoyl]-phenyl}-1H-indol-3-yl)-acetic Acid]
3.7 nM | O=C(O)Cc1c(-c2ccc(Cl)c(S(=O)(=O)NC3CCCCC3)c2)[nH]c2c(Cl)cccc12 [Example 8, [7-Chloro-2-(4-chloro-3-cyclohexylsulfamoyl-phenyl)-1H-indol-3-yl]-acetic Acid]
106 nM | O=C(O)Cc1c(-c2ccc(Cl)c(S(=O)(=O)Cc3cccc(Cl)c3)c2)[nH]c2ccccc12 [Example 15, {2-[4-Chloro-3-(3-chloro-phenylmethanesulfonyl)-phenyl]-1H-indol-3-yl}-acetic Acid]
7 nM | O=C(O)Cc1c(-c2ccc(Cl)c(S(=O)(=O)NCCCc3ccccc3)c2)[nH]c2ccccc12 [Example 2(f), {2-[4-Chloro-3-(3-phenyl-propylsulfamoyl)-phenyl]-1H-indol-3-yl}-acetic Acid]
20 nM | O=C(O)Cc1c(-c2ccc(Cl)c(S(=O)(=O)NCCc3ccccc3OC(F)(F)F)c2)[nH]c2ccccc12 [Example 2(d), (2-{4-Chloro-3-[2-(2-trifluoromethoxy-phenyl)-ethylsulfamoyl]-phenyl}-1H-indol-3-yl)-acetic Acid]
3 nM | COc1ccc(CCNS(=O)(=O)c2cc(-c3[nH]c4ccccc4c3CC(=O)O)ccc2Cl)cc1 [Example 2(c), (2-{4-Chloro-3-[2-(4-methoxy-phenyl)-ethylsulfamoyl]-phenyl}-1H-indol-3-yl)-acetic Acid]
0.2 nM | O=C(O)Cc1c(-c2ccc(Cl)c(S(=O)(=O)NC3CCCCC3)c2)[nH]c2cccc(Cl)c12 [Example 4, [4-Chloro-2-(4-chloro-3-cyclohexylsulfamoyl-phenyl)-1H-indol-3-yl]-acetic Acid]
14 nM | O=C(Cc1c(-c2ccc(Cl)c(S(=O)(=O)NC3CCCCC3)c2)[nH]c2ccccc12)NS(=O)(=O)C(F)(F)F [Example 11, 2-Chloro-N-cyclohexyl-5-[3-(2-oxo-2-trifluoromethanesulfonylamino-ethyl)-1H-indol-2-yl]-benzenesulfonamide]
15 nM | O=C(Cc1c(-c2ccc(Cl)c(S(=O)(=O)NC3CCCCC3)c2)[nH]c2ccccc12)Nc1nnn[nH]1 [Example 12, 2-[2-(4-Chloro-3-cyclohexylsulfamoyl-phenyl)-1H-indol-3-yl]-N-(1H-tetrazol-5-yl)-acetamide]
4 nM | O=C(O)Cc1c(-c2ccc(Cl)c(S(=O)(=O)NCc3ccc(Cl)cc3Cl)c2)[nH]c2ccccc12 [Example 1(a), {2-[4-Chloro-3-(2,4-dichloro-benzylsulfamoyl)-phenyl]-1H-indol-3-yl}-acetic Acid]
2 nM | O=C(O)Cc1c(-c2ccc(Cl)c(S(=O)(=O)NCCc3ccc(Cl)cc3Cl)c2)[nH]c2ccccc12 [Example 1(d), (2-{4-Chloro-3-[2-(2,4-dichloro-phenyl)-ethylsulfamoyl]-phenyl}-1H-indol-3-yl)-acetic Acid]
0.5 nM | CCc1ccc(-c2[nH]c3ccccc3c2CC(=O)O)cc1S(=O)(=O)NC1CCCCC1 [Example 13, [2-(3-cyclohexylsulfamoyl-4-ethyl-phenyl)-1H-indol-3-yl]-acetic Acid]
3.8 nM | COc1ccccc1CCNS(=O)(=O)c1cc(-c2[nH]c3ccccc3c2CC(=O)O)ccc1Cl [Example 2(a), (2-{4-Chloro-3-[2-(2-methoxy-phenyl)-ethylsulfamoyl]-phenyl}-1H-indol-3-yl)-acetic Acid]
3 nM | O=C(O)Cc1c(-c2ccc(Cl)c(S(=O)(=O)NCc3c(Cl)cccc3Cl)c2)[nH]c2ccccc12 [Example 1(b), {2-[4-Chloro-3-(2,6-dichloro-benzylsulfamoyl)-phenyl]-1H-indol-3-yl}-acetic Acid]
0.7 nM | O=C(O)Cc1c(-c2ccc(Cl)c(S(=O)(=O)NC3CCCCC3)c2)[nH]c2cccc(F)c12 [Example 6, [2-(4-Chloro-3-cyclohexylsulfamoyl-phenyl)-4-fluoro-1H-indol-3-yl]-acetic Acid]
1.5 nM | Cc1cccc2[nH]c(-c3ccc(Cl)c(S(=O)(=O)NC4CCCCC4)c3)c(CC(=O)O)c12 [Example 7, [2-(4-Chloro-3-cyclohexylsulfamoyl-phenyl)-4-methyl-1H-indol-3-yl]-acetic Acid]
12 nM | O=C(O)Cc1c(-c2ccc(Cl)c(NS(=O)(=O)Cc3cccc(Cl)c3)c2)[nH]c2ccccc12 [Example 16, {2-[4-Chloro-3-(3-chloro-phenylmethanesulfonylamino)-phenyl]-1H-indol-3-yl}-acetic Acid]
2.7 nM | CCS(=O)(=O)NC(=O)Cc1c(-c2ccc(Cl)c(S(=O)(=O)NC3CCCCC3)c2)[nH]c2ccccc12 [Example 10, 2-Chloro-N-cyclohexyl-5-[3-(2-ethanesulfonylamino-2-oxo-ethyl)-1H-indol-2-yl]-benzenesulfonamide]
2 nM | CS(=O)(=O)NC(=O)Cc1c(-c2ccc(Cl)c(S(=O)(=O)NC3CCCCC3)c2)[nH]c2ccccc12 [Example 9, 2-Chloro-N-cyclohexyl-5-[3-(2-methanesulfonylamino-2-oxo-ethyl)-1H-indol-2-yl]-benzenesulfonamide]
509 nM | CNC(=O)Cc1c(-c2ccc(Cl)c(S(=O)(=O)NC3CCCCC3)c2)[nH]c2ccccc12 [Example 3, 2-[2-(4-Chloro-3-cyclohexylsulfamoyl-phenyl)-1H-indol-3-yl]-N-methyl-acetamide]
5.3 nM | CC(C(=O)O)c1c(-c2ccc(Cl)c(S(=O)(=O)NC3CCCCC3)c2)[nH]c2ccccc12 (stereo not shown) [Example 14, 2-[2-(4-Chloro-3-cyclohexylsulfamoyl-phenyl)-1H-indol-3-yl]-propionic Acid]
